According to paper PMC4295010 (Journal of the American Chemical Society, 2014):
Where a SMILES comes first, the peptide text is derived from it. [ ]: non-standard residue; d: D form.

Legend:
[1] = aggregation of 1 by UV absorption change of the supernatant; type: physicochemical; conditions: over time, Figure S3, varying [Van]0
HeLa cells [2] = assay: MTT cell viability, HeLa; type: cell-based
[3] = isothermal titration calorimetry; type: binding; conditions: ITC of 2 with Van, 25 °C, Figure S6
HeLa cells [4] = assay: NBD-Van staining of aggregates on HeLa cells, confocal; type: cell-based; conditions: NBD-Van (6 μM) alone

In the case of CN[C@H](CC(C)C)C(=O)N[C@H]1C(=O)N[C@@H](CC(N)=O)C(=O)N[C@H]2C(=O)N[C@H]3C(=O)N[C@H](C(=O)N[C@H](C(=O)O)c4cc(O)cc(O)c4-c4cc3ccc4O)[C@H](O)c3ccc(c(Cl)c3)Oc3cc2cc(c3O[C@@H]2O[C@H](CO)[C@@H](O)[C@H](O)[C@H]2O[C@H]2C[C@](C)(N)[C@H](O)[C@H](C)O2)Oc2ccc(cc2Cl)[C@H]1O [Van, vancomycin, reference compound], the “amount of Van in the aggregates” value [1] is reported as “decreases with time” and the cytotoxicity (HeLa cells [2]; alone, concentration as high as 500 μM, MTT) is reported as “innocuous”.
With CC(=O)N[C@@H](CCCCN)C(=O)NCC(=O)NCC(=O)N[C@H](C)C(=O)N[C@H](C)C(=O)O [compound 2] (Ac-KGG[dA][dA]-OH) the Kd [3] was 135 µM, the binding ratio n [3] was 1 and the inhibition of proliferation (HeLa cells [2]; with addition of Van at 500 μM) was “scarcely inhibits”. For the same compound, the inhibition of proliferation (HeLa cells [2]; without addition of Van, at 500 μM) was “scarcely inhibits”.
In the case of “7-nitrobenzofurazan-derivatized vancomycin [NBD-Van]”, the “fluorescent aggregates with HeLa cells” value (HeLa cells [4]) is reported as “few aggregates on the cells”.
